In ChEMBL document CHEMBL5385976, “Recognition of arylmethylidene derivatives of imidazothiazolotriazinones as novel tubulin polymerization inhibitors” (RSC Med Chem, 2024):

Columns and labels:
Assay type in all cases: functional
NCI/ADR-RES = assay: Anticancer activity against human NCI-ADR-RES cells assessed as cell growth at 10 umol/L incubated for 48 hrs by SRB assay relative to control; conditions: dose 10 µmol/L, read-out: Activity
SNB-75 = assay: Anticancer activity against human SNB-75 cells assessed as cell growth at 10 umol/L incubated for 48 hrs by SRB assay relative to control; conditions: SNB-75, 48 h, dose 10 µmol/L, read-out: Activity
K562 [1] = assay: Induction of apoptosis in human K562 cells at 0.5 uM incubated for 3 days by RNase/PI staining based flow cytometry (reference value: 1.4 %); conditions: time 3 day
BT-549 = assay: Anticancer activity against human BT-549 cells assessed as cell growth at 10 umol/L incubated for 48 hrs by SRB assay relative to control; conditions: BT-549, 48 h, dose 10 µmol/L, read-out: Activity
M14 = assay: Anticancer activity against human M14 cells assessed as cell growth at 10 umol/L incubated for 48 hrs by SRB assay relative to control; conditions: M14, 48 h, dose 10 µmol/L, read-out: Activity
SN12C = assay: Anticancer activity against human SN12C cells assessed as cell growth at 10 umol/L incubated for 48 hrs by SRB assay relative to control; conditions: dose 10 µmol/L, read-out: Activity
EKVX = assay: Anticancer activity against human EKVX cells assessed as cell growth at 10 umol/L incubated for 48 hrs by SRB assay relative to control; conditions: dose 10 µmol/L, read-out: Activity
IGROV-1 = assay: Anticancer activity against human IGROV-1 cells assessed as cell growth at 10 umol/L incubated for 48 hrs by SRB assay relative to control; conditions: IGROV-1, 48 h, dose 10 µmol/L, read-out: Activity
A498 = assay: Anticancer activity against human A498 cells assessed as cell growth at 10 umol/L incubated for 48 hrs by SRB assay relative to control; conditions: A498, 48 h, dose 10 µmol/L, read-out: Activity
SK-MEL-2 = assay: Anticancer activity against human SK-MEL-2 cells assessed as cell growth at 10 umol/L incubated for 48 hrs by SRB assay relative to control; conditions: SK-MEL-2, 48 h, dose 10 µmol/L, read-out: Activity
SF-539 = assay: Anticancer activity against human SF-539 cells assessed as cell growth at 10 umol/L incubated for 48 hrs by SRB assay relative to control; conditions: SF-539, 48 h, dose 10 µmol/L, read-out: Activity
MOLT-4 = assay: Anticancer activity against human MOLT-4 cells assessed as cell growth at 10 umol/L incubated for 48 hrs by SRB assay relative to control; conditions: MOLT-4, 48 h, dose 10 µmol/L, read-out: Activity
NCI-H522 = assay: Anticancer activity against human NCI-H522 cells assessed as cell growth at 10 umol/L incubated for 48 hrs by SRB assay relative to control; conditions: NCI-H522, 48 h, dose 10 µmol/L, read-out: Activity
RXF 393 = assay: Anticancer activity against human RXF 393 cells assessed as cell growth at 10 umol/L incubated for 48 hrs by SRB assay relative to control; conditions: RXF 393, 48 h, dose 10 µmol/L, read-out: Activity
LOX IMVI = assay: Anticancer activity against human LOX IMVI cells assessed as cell growth at 10 umol/L incubated for 48 hrs by SRB assay relative to control; conditions: dose 10 µmol/L, read-out: Activity
SK-MEL-5 = assay: Anticancer activity against human SK-MEL-5 cells assessed as cell growth at 10 umol/L incubated for 48 hrs by SRB assay relative to control; conditions: SK-MEL-5, 48 h, dose 10 µmol/L, read-out: Activity
A549 = assay: Anticancer activity against human A549 cells assessed as cell growth at 10 umol/L incubated for 48 hrs by SRB assay relative to control; conditions: A549, 48 h, dose 10 µmol/L, read-out: Activity
U-251 = assay: Anticancer activity against human U-251 cells assessed as cell growth at 10 umol/L incubated for 48 hrs by SRB assay relative to control; conditions: U-251, 48 h, dose 10 µmol/L, read-out: Activity
HOP-92 = assay: Anticancer activity against human HOP-92 cells assessed as cell growth at 10 umol/L incubated for 48 hrs by SRB assay relative to control; conditions: HOP-92, 48 h, dose 10 µmol/L, read-out: Activity
NCI-H460 = assay: Anticancer activity against human NCI-H460 cells assessed as cell growth at 10 umol/L incubated for 48 hrs by SRB assay relative to control; conditions: NCI-H460, 48 h, dose 10 µmol/L, read-out: Activity
K562 [2] = assay: Induction of cell cycle arrest in human K562 cells at G1 phase at 0.5 uM incubated for 3 days by RNase/PI staining based flow cytometry (reference value: 50 %); conditions: time 3 day
Hs-578T = assay: Anticancer activity against human Hs-578T cells assessed as cell growth at 10 umol/L incubated for 48 hrs by SRB assay relative to control; conditions: dose 10 µmol/L, read-out: Activity
RPMI-8226 = assay: Anticancer activity against human RPMI-8226 cells assessed as cell growth at 10 umol/L incubated for 48 hrs by SRB assay relative to control; conditions: RPMI-8226, 48 h, dose 10 µmol/L, read-out: Activity
K562 [3] = assay: Anticancer activity against human K562 cells assessed as cell growth at 10 umol/L incubated for 48 hrs by SRB assay relative to control; conditions: K562, 48 h, dose 10 µmol/L, read-out: Activity
HOP-62 = assay: Anticancer activity against human HOP-62 cells assessed as cell growth at 10 umol/L incubated for 48 hrs by SRB assay relative to control; conditions: HOP-62, 48 h, dose 10 µmol/L, read-out: Activity
HCT-15 = assay: Anticancer activity against human HCT-15 cells assessed as cell growth at 10 umol/L incubated for 48 hrs by SRB assay relative to control; conditions: HCT-15, 48 h, dose 10 µmol/L, read-out: Activity
MDA-MB-468 = assay: Anticancer activity against human MDA-MB-468 cells assessed as cell growth at 10 umol/L incubated for 48 hrs by SRB assay relative to control; conditions: MDA-MB-468, 48 h, dose 10 µmol/L, read-out: Activity
MCF7 = assay: Anticancer activity against human MCF7 cells assessed as cell growth at 10 umol/L incubated for 48 hrs by SRB assay relative to control; conditions: MCF7, 48 h, dose 10 µmol/L, read-out: Activity
K562 [4] = assay: Induction of cell cycle arrest in human K562 cells at S phase at 0.5 uM incubated for 3 days by RNase/PI staining based flow cytometry (reference value: 16 %); conditions: time 3 day
Malme-3M = assay: Anticancer activity against human Malme-3M cells assessed as cell growth at 10 umol/L incubated for 48 hrs by SRB assay relative to control; conditions: dose 10 µmol/L, read-out: Activity
SNB-19 = assay: Anticancer activity against human SNB-19 cells assessed as cell growth at 10 umol/L incubated for 48 hrs by SRB assay relative to control; conditions: SNB-19, 48 h, dose 10 µmol/L, read-out: Activity

Row | Structure (SMILES) | growth at 10 µM (NCI/ADR-RES) [%] | growth at 10 µM (SNB-75) [%] | Activity (K562 [1]) [%] | growth at 10 µM (BT-549) [%] | growth at 10 µM (M14) [%] | growth at 10 µM (SN12C) [%] | growth at 10 µM (EKVX) [%] | growth at 10 µM (IGROV-1) [%] | growth at 10 µM (A498) [%] | growth at 10 µM (SK-MEL-2) [%] | growth at 10 µM (SF-539) [%] | growth at 10 µM (MOLT-4) [%] | growth at 10 µM (NCI-H522) [%] | growth at 10 µM (RXF 393) [%] | growth at 10 µM (LOX IMVI) [%] | growth at 10 µM (SK-MEL-5) [%] | growth at 10 µM (A549) [%] | growth at 10 µM (U-251) [%] | growth at 10 µM (HOP-92) [%] | growth at 10 µM (NCI-H460) [%] | also measured
1 | CCN1C(=O)N(CC)C2C1NN=c1s/c(=C\c3ccc(Cl)cc3Cl)c(=O)n12 (configuration not stated) | 5.7 | 19.7 | 5 | 15.9 | 13.8 | 21.5 | 50.1 | -43.3 | 16.9 | -20.8 | 12.8 | 12.9 | -8.8 | 61.1 | 18.3 | 66.1 | 14.6 | 11 | 50.9 | 5.7 | Activity (K562 [2]): 13%; growth at 10 µM (Hs-578T): 15.8%; growth at 10 µM (RPMI-8226): 16.5%; growth at 10 µM (K562 [3]): 83.7%; growth at 10 µM (HOP-62): 33.5%; growth at 10 µM (HCT-15): 9.5%; growth at 10 µM (MDA-MB-468): 5.4%; growth at 10 µM (MCF7): 14%; Activity (K562 [4]): 14%; growth at 10 µM (Malme-3M): 50.4%; growth at 10 µM (SNB-19): 27.9%
2 | COc1cc2c(c(OC)c1OC)-c1ccc(OC)c(=O)cc1[C@@H](NC(C)=O)CC2 [COLCHICINE] | -20.9 | 19.3 | 3.1 | 55.1 | 1.7 | 46.8 | 35.8 | -49 | 15.5 | -32 | 7.9 | 6.7 | -64.2 | 15.3 | 26.5 | 30.7 | 44.9 | 19 | 2.4 | 2.9 | Activity (K562 [2]): 18%; growth at 10 µM (Hs-578T): -7.1%; growth at 10 µM (RPMI-8226): 2.3%; growth at 10 µM (K562 [3]): -25.7%; growth at 10 µM (HOP-62): 20%; growth at 10 µM (HCT-15): -16.8%; growth at 10 µM (MDA-MB-468): 70.5%; growth at 10 µM (MCF7): -9.6%; Activity (K562 [4]): 19%; growth at 10 µM (Malme-3M): 39%; growth at 10 µM (SNB-19): 19%
